Results published in patent publication US20150079158A1, “METHOD TO STABILIZE LIPOSOME EMULSIONS FOR BIOCIDAL DELIVERY” (General Electric Company, priority 2012, published 2015).

Assay: HPLC analysis of active degradation after accelerated storage
Type: physicochemical
Experimental: The degradation of the biocide-containing liposome emulsion can be qualitatively observed by the formation of an insoluble precipitate. Quantitatively, high pressure liquid chromatography (HPLC) analysis was used to determine actives concentrations for samples stored under accelerated storage conditions. The samples that passed 90 days at 35° C. or 30 days at 50° C. were taken to ambient temperature and analyzed. The stability of these liposome emulsions was determined as follows.
HPLC analysis was executed for active degradation of 5-chloro-2-methyl-4-isothiazolin-3-one and 2-methyl-4-isothiazolin-3-one in the samples after 90 days at 35° C. or 30 days at 50° C.

Cn1sccc1=O [2-methyl-4-isothiazolin-3-one]
active degradation (HPLC): less than 10%
